Consider six compounds from US20260240888A1, “METHODS AND PHARMACEUTICAL COMPOSITIONS FOR TREATING AGE-RELATED DISEASES” (Neurxstem, priority 2023, published 2026).

For series [1] the following is noted: cited from earlier work.
In series [2] the test system is AD-NNOP-ApoE neural organoids. Description: Gene expression (Ampliseq transcriptomics) in AD-NNOP-ApoE neural organoids treated with CGS-21680. It counts as cell-based, human.
Source text: Reads in counts per minute (cpm)<1 are considered background noise. All cpm data are normalized data and the reads are a direct representation of the abundance of the RNA for each gene.
Expression of differentially expressed genes in PG-NNOP neural organoids compared to Normal-NNOP in culture for 12 weeks.
The next series concerns PG-NNOP neural organoids. Description: Gene expression (Ampliseq transcriptomics) in PG-NNOP neural organoids treated with drug. Type of series: cell-based, human. The text has this: Furthermore, in one embodiment RNA from neural organoids for Alzheimer's disease, are converted to DNA libraries and then the representative DNA libraries are sequenced using exon-specific primers for 20,814 genes using the AmpliSeq™ technique available commercially from ThermoFisher. Reads in counts per […] (cpm)<1 are considered background noise. All cpm data are normalized data and the reads are a direct representation of the abundance of the RNA for each gene. In another informative embodiment, RNA from neural organoids for Progeroid syndromes were converted to DNA libraries and then sequenced according to this protocol.
Neural Organoids derived from induced pluripotent stem cells derived from adult skin cells of AD, ADRD, MED, or Hutchinson Gilford progeria (PG) patients were grown in vitro for […] as previous described in U.S. Pat. No. 11,435,890, incorporated by reference in its entirety herein. Transcriptomic data from these neural organoids were obtained. Differences in expression of 20,814 genes expressed in the human genome were determined between these neural organoids and those from neural organoids from a normal individual human (an individual not having/diagnosed with AD, ADRD, MED, or Progeroid syndromes). Detailed data analysis using Gene Card and Pubmed data bases were performed. […] These genes comprise a suite of biomarkers for Alzheimer's disease.
Thus, given the overlap in transcriptomic profile of AD and PG, experiments were set out to test the effect of targeting this receptor on PG-NNOP. FAAH inhibitor PF-3845, which is known to raise endogenous levels of endocannabinoid anandamide receptor agonist anandamide and increase endocannabinoid anandamide receptor activity, was tested for effects on gene expression dysregulation in PG-NNOP platform cells as set forth herein (Table 7). […] As the log 2 fold numbers reveal, the direction of the change in gene expression was completely reversed in some biomarkers by PF-3845, or the change was reduced by PF-3845. Thus, PF-3845 was capable of reverting the biomarkers of PG to normalcy.
Expression of differentially expressed genes in PG-NNOP neural organoids compared to Normal-NNOP in culture for 12 weeks is shown, as well as expression of differentially expressed genes in PG-NNOP neural organoids with PF-3845 treatment compared to PG-NNOP without drug treatment in culture for 12 weeks. […] PG-NNOP neural organoids were incubated with vehicle (0.1% DMSO; control) or PF-3845 dissolved in DMSO at 10microM for 4 days and harvested for RNA extraction and gene expression analysis by Ampliseq™ (Thermofisher). Log 2 fold change with a positive value indicates a decrease in expression of a PG-NNOP gene when compared to Normal-NNOP or a PG-NNOP gene with FAAH-I compared to PG-NNOP without the drug treatment, and with a negative number indicates an increase in gene expression.
Expression of differentially expressed genes in PG-NNOP neural organoids compared to Normal-NNOP in culture for 12 weeks and expression of differentially expressed genes in PG-NNOP neural organoids with metformin treatment compared to PG-NNOP without drug treatment in culture for 12 weeks is shown. […] PG-NNOP neural organoids were incubated with vehicle (HBBS; control) or metformin dissolved in HBBS at 0.28 mg/ml for 4 days and harvested for RNA extraction and gene expression analysis by Ampliseq™ (Thermofisher). Log 2 fold change with a positive value indicates a decrease in expression of a PG-NNOP gene when compared to Normal-NNOP or a PG-NNOP gene with Metformin compared to PG-NNOP without the drug treatment, and with a negative number indicates an increase in gene expression.
Expression of differentially expressed genes in PG-NNOP neural organoids compared to Normal-NNOP in culture for 12 weeks and expression of differentially expressed genes in PG-NNOP neural organoids with rapamycin treatment compared to PG-NNOP without drug treatment in culture for 12 weeks is shown. […]

For series [3] the following is noted: cited from earlier work. The source holds these as a separate data set.
[4] abbreviates: 0.28 mg/ml, 4 days, vs PG-NNOP without drug, positive = decrease in expression.
Where [5] appears, read: 10microM, 4 days, vs PG-NNOP without drug, positive = decrease in expression.
[6] abbreviates: 50 nM, 4 days, vs PG-NNOP without drug, positive = decrease in expression.

Where a name gives a salt, the structure may show the parent alone.

In the case of `CCNC(=O)[C@H]1O[C@@H](n2cnc3c(N)nc(C#CC[C@H]4CC[C@H](C(=O)OC)CC4)nc32)[C@H](O)[C@@H]1O` [Apadenoson, methyl (1R,4r)-4-(3-(6-amino-9-((2R,3R,4S,5S)-5-(ethylcarbamoyl)-3,4-dihydroxytetrahydrofuran-2-yl)-9H-purin-2-yl)prop-2-yn-1-yl)cyclohexane-1-carboxylate], the “solubility in DMSO” value in series [1] (DMSO) is listed as “Soluble in DMSO”.

As for `CCNC(=O)[C@H]1O[C@@H](n2cnc3c(N)nc(NCCc4ccc(CCC(=O)O)cc4)nc32)[C@H](O)[C@@H]1O` [CGS-21680, 2-p-(2-Carboxyethyl) phenethylamino-5′-N-ethylcarboxamidoadenosine hydrochloride hydrate], the “effect on dysregulation of SLC7A5 and MT2A” value in series [2] was “the dysregulation was corrected”. Further, the “effect on gene expression dysregulated in both AD-ApoE-NNOP and PG-NNOP” value in series [2] (1 micromolar) is reported as “significantly altered gene expression”. Also, in series [2] (direction towards normalcy), the “effect on changes in expression of SELENBP1 and RARB in AD-ApoE-NNOP” value is given as “reduced the changes in expression of both genes”. The “soluble in 45% (w/v) aq 2-hydroxypropyl-β-cyclodextrin” value in series [1] (45% (w/v) aq 2-hydroxypropyl-β-cyclodextrin) is given as at most 20 mg/mL. For the same compound, the “soluble in DMSO” value in series [1] (DMSO) is “up to 3.4 mg/mL”.

For the compound `CN(C)C(=N)NC(=N)N` [Metformin], in the series with PG-NNOP neural organoids, the “effect on dysregulated gene expression in PG-NNOP” value (from here on “effect … in PG-NNOP”) is reported as “shifted the gene expression towards normalcy”. In the series with PG-NNOP neural organoids (setting [4]), the “Log2 Fold Change of CDK1 gene expression” value is 0.52, the “Log2 Fold Change of CDKN1A gene expression” value is reported as −0.35, the “Log2 Fold Change of DNAJC1 gene expression” value is −0.26 and the “Log2 Fold Change of ID2 gene expression” value stood at 0.86. In addition, in the series on PG-NNOP neural organoids (setting [4]), the “Log2 Fold Change of LMNB2 gene expression” value was −0.42, the “Log2 Fold Change of MT2A gene expression” value is listed as 2.06, the “Log2 Fold Change of POGZ gene expression” value was 0.36 and the “Log2 Fold Change of POLE3 gene expression” value is reported as −0.25. In the series with PG-NNOP neural organoids (setting [4]), the “Log2 Fold Change of SLC35F1 gene expression” value is listed as −0.47, the “Log2 Fold Change of USP31 gene expression” value is 0.67, the “Log2 Fold Change of VCP gene expression” value came out at 0.33 and the “Log2 Fold Change of WRN gene expression” value was determined as 0.71.

Take `O=C(Nc1cccnc1)N1CCC(Cc2cccc(Oc3ccc(C(F)(F)F)cn3)c2)CC1` [PF-3845, N-3-Pyridinyl-4-[[3-[[5-(trifluoromethyl)-2-pyridinyl]oxy]phenyl]methyl]-1-piperidinecarboxamide]: the “effect … in PG-NNOP” value with PG-NNOP neural organoids is given as “effective in correcting the gene expression that was altered in PG-NNOP”. For the same compound, in the series on PG-NNOP neural organoids (setting [5]), the “Log2 Fold Change of CDKN1A gene expression” value was 0.77, the “Log2 Fold Change of EZH2 gene expression” value is given as −0.5, the “Log2 Fold Change of ID2 gene expression” value is listed as 0.35 and the “Log2 Fold Change of IDI1 gene expression” value came out at 1.15. Further, in the series on PG-NNOP neural organoids (setting [5]), the “Log2 Fold Change of LMNB2 gene expression” value was −0.67, the “Log2 Fold Change of MT2A gene expression” value is recorded as 2.77, the “Log2 Fold Change of SLC35F1 gene expression” value is given as −0.65 and the “Log2 Fold Change of SLC38A1 gene expression” value is listed as −0.57. Besides, the “Log2 Fold Change of USP31 gene expression” value in the series with PG-NNOP neural organoids (setting [5]) is listed as 0.62.

Turning to `CO[C@H]1C[C@@H]2CC[C@@H](C)[C@@](O)(O2)C(=O)C(=O)N2CCCC[C@H]2C(=O)O[C@H]([C@H](C)C[C@@H]2CC[C@@H](O)[C@H](OC)C2)CC(=O)[C@H](C)/C=C(\C)[C@@H](O)[C@@H](OC)C(=O)[C@H](C)C[C@H](C)/C=C/C=C/C=C/1C` [Rapamycin], the “effect … in PG-NNOP” value in the series with PG-NNOP neural organoids is recorded as “shifted the gene expression towards normalcy”. In the series with PG-NNOP neural organoids (setting [6]), the “Log2 Fold Change of CDKN1A gene expression” value was found to be 1.21, the “Log2 Fold Change of IDI1 gene expression” value amounted to 1.48, the “Log2 Fold Change of LMNB2 gene expression” value is recorded as −0.96 and the “Log2 Fold Change of MT2A gene expression” value is given as 3.23. Also, in the series on PG-NNOP neural organoids (setting [6]), the “Log2 Fold Change of POLE3 gene expression” value is on record as 0.75, the “Log2 Fold Change of SLC35F1 gene expression” value was −0.83, the “Log2 Fold Change of SLC38A1 gene expression” value is −1.15 and the “Log2 Fold Change of USP36 gene expression” value was 0.99.

As for `COc1ccc(C2CNC(=O)C2)cc1OC1CCCC1` (stereo not drawn) [Rolipram], the IC50 in series [3] was 800 nM.
